Measurements published in ChEMBL document CHEMBL1201862, “PubChem BioAssay data set” (2004).
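Growth conditions: 96-well plates. Treatment: test compound, 48 hours, 5 concentrations. Analysis: linear interpolation between bracketing concentrations; unreached endpoints set to highest concentration. GI50: concentration for 50% inhibition of growth.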 Calls of active or inactive are those of the source. Cut-off read from the data, not from the text of the source: active = GI50 up to about 1.1 µM and inactive = higher.

Tests used:
Test in all cases: NCI anticancer screen, dose series, 48 h
COLO 205 = system: COLO 205
HT-29 = system: HT-29
SW-620 = system: SW-620
NCI-H460 = system: NCI-H460
RPMI-8226 = system: RPMI-8226
SF-295 = system: SF-295
SF-268 = system: SF-268
Malme-3M = system: Malme-3M
KM12 = system: KM12
K562 = system: K562
NCI-H522 = system: NCI-H522
CAKI-1 = system: CAKI-1
SN12C = system: SN12C
XF498 = system: XF498
HCC 2998 = system: HCC 2998
UACC-62 = system: UACC-62
MOLT-4 = system: MOLT-4
SK-MEL-28 = system: SK-MEL-28
HCT-15 = system: HCT-15
SK-MEL-5 = system: SK-MEL-5

SMILES	GI50 (COLO 205)	GI50 (HT-29)	GI50 (SW-620)	GI50 (NCI-H460)	GI50 (RPMI-8226)	GI50 (SF-295)	GI50 (SF-268)	GI50 (Malme-3M)	GI50 (KM12)	GI50 (K562)	GI50 (NCI-H522)	GI50 (CAKI-1)	GI50 (SN12C)	GI50 (XF498)	GI50 (HCC 2998)	GI50 (UACC-62)	GI50 (MOLT-4)	GI50 (SK-MEL-28)	GI50 (HCT-15) [µM]	GI50 (SK-MEL-5)
O=c1n(CC2CO2)c2ccccc2n1CC1CS1 (stereo not drawn)	> 100 µM (inactive)	> 10 µM (inactive)	> 100 µM (inactive)	> 100 µM (inactive)	36.3 µM (inactive)	> 100 µM (inactive)	91.8 µM (inactive)	> 100 µM (inactive)	> 100 µM (inactive)	> 100 µM (inactive)	> 100 µM (inactive)	45.1 µM (inactive)	> 100 µM (inactive)	> 100 µM (inactive)	> 100 µM (inactive)	49 µM (inactive)	73.3 µM (inactive)	> 100 µM (inactive)	> 100	
Cc1ccc(Cl)cc1/N=N/C(=O)NNc1cc(Cl)ccc1C	21.9 µM (inactive)	26.9 µM (inactive)		18 µM (inactive)	19.9 µM (inactive)	19.4 µM (inactive)		24 µM (inactive)	33.1 µM (inactive)	24.2 µM (inactive)	13.1 µM (inactive)	13.1 µM (inactive)	29.4 µM (inactive)		40.4 µM (inactive)	11.2 µM (inactive)	13.9 µM (inactive)	18 µM (inactive)	17.1	14.2 µM (inactive)
CC1(C)CCc2cc3c(-c4ccccc4)cc(=O)oc3cc2O1	> 100 µM (inactive)	> 100 µM (inactive)	> 100 µM (inactive)	> 100 µM (inactive)	> 100 µM (inactive)	48.3 µM (inactive)	> 100 µM (inactive)	> 100 µM (inactive)		> 100 µM (inactive)	> 100 µM (inactive)	> 100 µM (inactive)	> 100 µM (inactive)	41 µM (inactive)		> 100 µM (inactive)	> 100 µM (inactive)	> 100 µM (inactive)	> 100	> 100 µM (inactive)
CCOc1ccc(C(C)c2cc3c(cc2OC)OCO3)cc1 (stereo not drawn)		0.237 µM (active)	0.259 µM (active)	0.34 µM (active)	0.427 µM (active)	0.0828 µM (active)	1.05 µM (active)	0.457 µM (active)			0.0316 µM (active)	0.834 µM (active)	0.484 µM (active)	0.256 µM (active)	0.466 µM (active)	0.376 µM (active)	0.396 µM (active)		0.299	0.269 µM (active)
CCC1=NC(C(F)(F)F)(C(F)(F)F)N=C(N2CCOCC2)O1	> 100 µM (inactive)	> 100 µM (inactive)	> 100 µM (inactive)	> 100 µM (inactive)	> 100 µM (inactive)	> 100 µM (inactive)	> 100 µM (inactive)		> 100 µM (inactive)	> 100 µM (inactive)	> 100 µM (inactive)	34.5 µM (inactive)	> 100 µM (inactive)		> 100 µM (inactive)	> 100 µM (inactive)	> 100 µM (inactive)	> 100 µM (inactive)	> 100	> 100 µM (inactive)
O=c1c2ccccc2[nH]c2cc(O)cc(O)c12		40.2 µM (inactive)		32.8 µM (inactive)		42.9 µM (inactive)	93.8 µM (inactive)	56.8 µM (inactive)	34.9 µM (inactive)	66.4 µM (inactive)	16.9 µM (inactive)		61.4 µM (inactive)	27.9 µM (inactive)	50.2 µM (inactive)	> 100 µM (inactive)	34.2 µM (inactive)	> 100 µM (inactive)	55.6	19.1 µM (inactive)
CCCCOC(=O)CN1C(=O)c2ccccc2C1=O	> 100 µM (inactive)	> 100 µM (inactive)	> 100 µM (inactive)	> 100 µM (inactive)		> 100 µM (inactive)	> 100 µM (inactive)	> 100 µM (inactive)	> 100 µM (inactive)		> 100 µM (inactive)	84.5 µM (inactive)		> 100 µM (inactive)	> 100 µM (inactive)	> 100 µM (inactive)	> 100 µM (inactive)	> 100 µM (inactive)	> 100	> 100 µM (inactive)
C=C(C)C1CC2=C(O1)C(=O)c1ccccc1C2=O (stereo not drawn) [DEHYDROISO-ALPHA-LAPACHONE]	19.3 µM (inactive)	20.9 µM (inactive)	23.6 µM (inactive)	17.7 µM (inactive)	15.1 µM (inactive)				18.3 µM (inactive)	18.6 µM (inactive)	20.7 µM (inactive)	17.6 µM (inactive)	19.1 µM (inactive)	17.9 µM (inactive)	19.1 µM (inactive)	16.1 µM (inactive)	10.6 µM (inactive)	19 µM (inactive)	17.9	14 µM (inactive)
